What is called EC50 is the concentration that produces a half-maximal response. The half-life is the time in which the quantity being followed falls by half.

We go through seven molecules from patent US7414107B2, “Pharmacologically active peptide conjugates having a reduced tendency towards enzymatic hydrolysis” (priority 1998, dated 2008).

The subject of one data set is vas deferens. The conditions noted are these: read-out: EC50 value; half maximal inhibition of electrically-induced contraction, mouse vas deferens. The protocol:
(§1) In short: vasa deferentia were isolated from male mice weighing 20-30 g (Mellegaard breeding, DK) and suspended through two electrodes in 10 ml baths at resting tension of 1 g. […] The tissues were stimulated electrically (70 V, 1 ms duration; 0.1 Hz) and contractions were recorded isometrically on a chart recorder. After equilibration of the tissue for at least 20 min, drugs were added in the bath and the maximum effects were measured.
Prior to addition of the plasma sample, a standard dose-response curve was generated in each preparation in order to express the inhibitory activity as concentration of each test substance. Thus, the calculated concentration is a reflection of inhibitory activity in the vas deferens bioassay preparation.
Where initial=initial […] contraction force prior to addition of test substance; conc=concentration of test substance; EC50=concentration of test substance that […] produced half maximal inhibition of electrically-induced contraction; background=contraction force during maximal relaxation.

The next data set has as its target T1, carboxypeptidase A (Bos taurus, UniProt P00730).
T1 construct: purchased Sigma, UK type I (catalogue number not given); host or cells: bovine pancreas
T1 sequence (P00730 111-419): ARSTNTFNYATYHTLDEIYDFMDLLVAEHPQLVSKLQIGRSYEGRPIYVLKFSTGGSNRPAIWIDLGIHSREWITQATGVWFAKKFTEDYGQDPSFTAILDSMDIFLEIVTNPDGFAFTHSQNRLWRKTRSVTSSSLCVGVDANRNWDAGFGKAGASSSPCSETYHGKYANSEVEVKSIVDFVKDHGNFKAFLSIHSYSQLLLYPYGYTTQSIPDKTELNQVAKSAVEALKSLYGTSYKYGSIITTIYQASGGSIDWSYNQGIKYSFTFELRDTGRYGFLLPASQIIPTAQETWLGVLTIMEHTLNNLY
Briefly: Hydrolysis kinetics in carboxypeptidase A solution. The note with it: 50 mM phosphate buffer pH 7.4, 37° C., carboxypeptidase A 1 U/ml. It counts as in vitro ADME, bovine. The protocol:
(§2) Carboxypeptidase A (EC 3.4.17.1) type I from bovine pancreas, leucine aminopeptidase (EC 3.4.11.1) type III-CP from porcine kidney, α-chymotrypsin (EC […]) from bovine pancreas, and pepsin A (EC 3.4.23.1) from porcine stomach mucosa […] were obtained from Sigma, UK.
(§3) Gradient HPLC analysis of samples from in vitro kinetic measurements performed as described below was performed using a Hewlett Packard HP 1100 HPLC system consisting of a HP 1100 Binary Pump, a HPI 100 Autosampler, a HPI 100 Column Thermostat and a HP 1100 Variable Wavelength Detector. A Merck LiChroCART column (125×4 mm I.D.) and a LiChroCART precolumn (4×4 mm I.D.) packed with Lichrospher RP-18 (5 .μum particles) was used. The column was kept at 25° C. or 75° C. and the column effluent was measured by UV detection at 215 run. Separation of the peptide conjugates or the native peptides from degradation products and constituents of the reaction solutions was accomplished using gradient elution of the column with mixtures of mobile phase A (0.1 vol % TFA in water) and mobile phase B (0.085 vol % TFA in acetonitrile) at a flow rate of 1 ml/min.
(§4) The degradation of the peptide conjugate and the corresponding native peptide were studied at 37° C. in a 50 mM phosphate buffer solution at pH 7.4 containing leucine arninopeptidase (25 U/ml) or carboxypeptidase A (1 or 25 U/ml). Experiments were initiated by addition of an aliquot (100 μl) of a stock solution (1 mg/ml) of the peptide conjugate or the native peptide to 900 μl preheated enzyme solution giving a final concentration of ˜0.1 mg/ml (10^−5-10^−4M) of the peptide conjugate or the native peptide. The peptide/enzyme solution was kept at 37° C. using a SHT200D block heater from Stuart Scientific. At appropriate time intervals, samples of 100 μl were withdrawn from the peptide/enzyme solution, mixed thoroughly with 20 μl 25% TFA in acetonitrile in order to stop the enzymatic degradation process and analysed by HPLC as described above. Half-lives (t1/2) for the peptide conjugate and the corresponding native peptide in the enzyme solutions were calculated from plots of the natural logarithm to the concentration of the residual peptide (HPLC peak heights) against time using the formula t/2=1/kobs×ln(2), where kobs is the apparent first-order rate constant for the observed degradation.

The nature of data set [1]: Bioavailability in mice: functional activity in serum after p.o. or i.v. dosing (vas deferens bioassay). The conditions noted are these: 30 min. The method, then: Blood samples were centrifuged immediately (3000 g, 4° C.) and serum was isolated and used for activity determination.
as §1

For another data set, the target named is T2, leucine aminopeptidase (Sus scrofa, UniProt P28839).
T2 construct: purchased Sigma, UK type III-CP (catalogue number not given); host or cells: porcine kidney
T2 sequence (P28839 1-519): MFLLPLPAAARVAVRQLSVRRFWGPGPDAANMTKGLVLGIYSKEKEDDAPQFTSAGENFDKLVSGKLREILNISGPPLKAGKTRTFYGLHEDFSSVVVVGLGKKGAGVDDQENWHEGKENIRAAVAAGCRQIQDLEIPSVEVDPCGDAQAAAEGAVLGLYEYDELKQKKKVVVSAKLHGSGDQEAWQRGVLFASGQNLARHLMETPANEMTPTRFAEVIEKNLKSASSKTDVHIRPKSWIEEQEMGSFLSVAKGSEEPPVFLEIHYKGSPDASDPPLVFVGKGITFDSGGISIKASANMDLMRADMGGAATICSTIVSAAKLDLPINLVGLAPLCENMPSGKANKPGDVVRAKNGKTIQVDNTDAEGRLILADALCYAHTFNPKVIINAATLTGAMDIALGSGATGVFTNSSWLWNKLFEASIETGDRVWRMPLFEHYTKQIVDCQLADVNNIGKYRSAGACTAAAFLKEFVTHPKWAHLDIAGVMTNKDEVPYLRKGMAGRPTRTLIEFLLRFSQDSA
The experiment in a line: Hydrolysis kinetics in leucine aminopeptidase solution. It counts as in vitro ADME, porcine. The note with it: 50 mM phosphate buffer pH 7.4, 37° C., leucine aminopeptidase 25 U/ml; for half-life: pig. The protocol:
as §2, §3, §4

Data set [2] in a line: Hematological responses after p.o. EMP-1 / EMP-1-K6 in mice. The class given is in vivo. The note with it: male mice, 956 nmol p.o., 4 days after administration. The method, then: To examine the biological efficacy of peroral (p.o.) treatment with EMP-1 (SEQ ID NO: 117) and EMP-1-K6 (SEQ ID NO: 93), the hematological responses of an equimolar p.o. dose (956 nmol) of EMP-1 (2 mg) and EMP-1-K6 (SEQ ID NO: 93) (2.56 mg) were examined in male mice (n=8/group). To examine the time course of the hematological responses, a 10 μl venous blood sample was collected from the retroorbital plexus on days 0, 2, and 4. Body weight (BW) and the plasma concentration of hemoglobin (P-Hgb), the hematocrit value (Hct), the red blood cell count (RBC), and the mean cell hemoglobin concentration (MCHC) were determined before (Day 0), and 2 and 4 days after administration of EMP-1 (SEQ ID NO: 117) or EMP-1- K6 (SEQ ID NO: 93).

Marks after values point to notes of the source that are not given here. Where a SMILES comes first, the peptide text is derived from it. Bridges are numbered along the chain shown (N, C = ends). Where no end group is shown, it is not given here. [ ]: non-standard residue; d: D form. Orn = NCCC[C@H](N)C(=O)O

Consider “YGGFLKEKEKE [Leu-Enkephalin-(Lys-Glu)3-OH]”, for which the EC50 in the data set on vas deferens was found to be 350 nM.

As for “H-YGGFLKKEEEK-OH [Leu-Enkephalin-(Lys2-Glu3-Lys)-OH, H-Tyr-Gly-Gly-Phe-Leu-Lys-Lys-Glu-Glu-Glu-Lys-OH]”, the EC50 in the data set on vas deferens is 680 nM.

For `CC(C)C[C@H](NC(=O)[C@H](Cc1ccccc1)NC(=O)CNC(=O)CNC(=O)[C@@H](N)Cc1ccc(O)cc1)C(=O)O` [Leu-Enkephalin-OH, H-Tyr-Gly-Gly-Phe-Leu-OH, reference compound], the figures for the “pseudo first-order rate constant for the degradation” value (from here on “pseudo first-order rate constant”) on carboxypeptidase A and at leucine aminopeptidase were 0.98 min⁻¹ and 0.68 min⁻¹, respectively. In addition, the half-life came to 0.0117 h on carboxypeptidase A (cattle, carboxypeptidase A solution (1 U/ml) in phosphate buffer) and 0.0167 h on leucine aminopeptidase. Also, the “Functional activity in serum” value in data set [1] (50 mg/kg i.v.) and in data set [1] (50 mg/kg p.o.) was “no activity was detected” each time. In addition, the EC50 with vas deferens worked out at 65 nM.

Take “YGGFLKKKKKKKKKK [Leu-Enkephalin-(Lys)10-OH, H-Tyr-Gly-Gly-Phe-Leu-Lys10-OH]”: on carboxypeptidase A, the half-life was found to be 38.5 h and the “pseudo first-order rate constant” value was 0.0003 min⁻¹. Further, the EC50 with vas deferens was determined as 2500 nM. In addition, the half-life on leucine aminopeptidase was over 100 h.

As for `CC(C)C[C@@H]1NC(=O)[C@@H]2CCCN2C(=O)CNC(=O)[C@H](Cc2ccccc2)NC(=O)[C@H](Cc2c[nH]cn2)NC(=O)[C@@H](NC(=O)[C@H](CO)NC(=O)[C@H](Cc2ccc(O)cc2)NC(=O)[C@@H](NC(=O)CNC(=O)CN)[C@@H](C)O)CSSC[C@@H](C(=O)N[C@@H](CCCCN)C(=O)N2CCC[C@H]2C(=O)N[C@@H](CCC(N)=O)C(=O)NCC(=O)NCC(=O)O)NC(=O)[C@H](C(C)C)NC(=O)[C@H](Cc2c[nH]c3ccccc23)NC(=O)[C@H]([C@@H](C)O)NC1=O` [EMP-1-OH, H-GIy-Gly-Thr-Tyr-Ser-Cys-His-Phe-Gly-Pro-Leu-Thr-Trp -Val-Cys-Lys-Pro-Gln-Gly-GIy-OH, reference compound] (H-GGTYSCHFGPLTWVCKPQGG-OH; disulfide 6-15), in data set [2], the “Change in BW” value is 3.4 ± 0.2 g, the “Change in Hematocrit” value is given as 0.3 ± 0.8%, the “Change in MCHC” value stood at 2.9 ± 1.5 mM and the “Change in P-hgb” value is “+1.5 ± 0.5 mM”. In data set [2], the “Change in RBC” value was 0.6 ± 0.2 10^12 cells/1, the “Relative change in BW” value is recorded as “(16 ± 1%)”, the “Relative change in Hematocrit” value is “(0.8 ± 1.8%)” and the “Relative change in MCHC” value was “(4 ± 2%)”. Besides, in data set [2], the “Relative change in P-hgb” value is “(+8 ± 1%)” and the “Relative change in RBC” value is “(9 ± 3%)”. Besides, the half-life on carboxypeptidase A is over 50 h. Also, at leucine aminopeptidase, the “pseudo first-order rate constant” value is 0.0015 min⁻¹ and the half-life came out at 7.7 h.

On carboxypeptidase A, `CC(C)C[C@H](NC(=O)[C@H](Cc1ccccc1)NC(=O)CNC(=O)CNC(=O)[C@@H](N)Cc1ccc(O)cc1)C(=O)N[C@@H](CCCN)C(=O)N[C@@H](CCCN)C(=O)N[C@@H](CCCN)C(=O)N[C@@H](CCCN)C(=O)N[C@@H](CCCN)C(=O)N[C@@H](CCCN)C(=O)O` [Leu-Enkephalin-(Orn)6-OH, H-Tyr-Gly-Gly-Phe-Leu-(Orn)6-OH] (H-YGGFL[Orn][Orn][Orn][Orn][Orn][Orn]-OH) gave a half-life of over 100 h. Further, the EC50 in the data set with vas deferens was over 20000 nM. For the same molecule, on leucine aminopeptidase, the “pseudo first-order rate constant” value stood at 0.0064 min⁻¹ and the half-life was 1.8 h.

`CC(C)C[C@@H]1NC(=O)[C@@H]2CCCN2C(=O)CNC(=O)[C@H](Cc2ccccc2)NC(=O)[C@H](Cc2c[nH]cn2)NC(=O)[C@@H](NC(=O)[C@H](CO)NC(=O)[C@H](Cc2ccc(O)cc2)NC(=O)[C@@H](NC(=O)CNC(=O)CN)[C@@H](C)O)CSSC[C@@H](C(=O)N[C@@H](CCCCN)C(=O)N2CCC[C@H]2C(=O)N[C@@H](CCC(N)=O)C(=O)NCC(=O)NCC(=O)N[C@@H](CCCCN)C(=O)N[C@@H](CCCCN)C(=O)N[C@@H](CCCCN)C(=O)N[C@@H](CCCCN)C(=O)N[C@@H](CCCCN)C(=O)N[C@@H](CCCCN)C(=O)O)NC(=O)[C@H](C(C)C)NC(=O)[C@H](Cc2c[nH]c3ccccc23)NC(=O)[C@H]([C@@H](C)O)NC1=O` [EMP-1-(Lys)6-OH, H-Gly-Gly-Thr-Tyr-Ser-Cys-His-Phe-Gly-Pro-Leu-Thr-Trp -Val-Cys-Lys-Pro-Gln-Gly-Gly-LM-OH] (H-GGTYSCHFGPLTWVCKPQGGKKKKKK-OH; disulfide 6-15): in data set [2], the “Change in BW” value stood at 3.4 ± 0.3 g, the “Change in Hematocrit” value was found to be 4.5 ± 0.9 %, the “Change in MCHC” value is on record as 0.2 ± 1.5 mM and the “Change in P-hgb” value is “+2.4 ± 0.3 mM”. Besides, in data set [2], the “Change in RBC” value was 1.0 ± 0.1* 10^12 cells/1, the “Relative change in BW” value is recorded as “(15 ± 2%)”, the “Relative change in Hematocrit” value was “(12.3 ± 2.3%*)” and the “Relative change in MCHC” value was “(0 ± 2%)”. Further, in data set [2], the “Relative change in P-hgb” value was “(+15 ± 2%*)” and the “Relative change in RBC” value is recorded as “(17 ± 2%*)”. The same molecule registered a half-life on carboxypeptidase A of over 20 h. On leucine aminopeptidase, this molecule gave a half-life of over 100 h.
